assay: Solubility in water of synthesized substituted imidazolines; type: physicochemical

Compound | Solubility in water
CCCCCC1=NCCN1CCNCCC(=O)O [No. 5, 3-((2-(2-pentyl-4,5-dihydro-1H-imidazol-1-yl)ethyl)amino)propanoic acid] | Yes Yes Yes
CCCCCCCC1=NCCN1CCNCCC(=O)O [No. 6, 3-((2-(2-heptyl-4,5-dihydro-1H-imidazol-1-yl)ethyl)amino)propanoic acid] | Yes Yes Yes
CCCCCCCCCCCC1=NCCN1CCNCCC(=O)O [No. 7, 3-((2-(2-undecyl-4,5-dihydro-1H-imidazol-1-yl)ethyl)amino)propanoic acid] | Yes Yes Yes
